Measurements: US12263248B2, “Compounds and compositions for intracellular delivery of therapeutic agents” (ModernaTX, Inc., priority 2018, dated 2025)

How the values were obtained:
[1] = Particle size and polydispersity index of nanoparticle compositions (Zetasizer Nano ZS); assay type: physicochemical; conditions: Table 1A; for Size (nm): lipid:DSPC:cholesterol:PEG-DMG 50:10:38.5:1.5 mol %
Procedure, shortened: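 Measured in 1×PBS by Zetasizer Nano ZS.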

luciferase (Luc) mRNA [2] = experiment: Luc expression, whole body bioluminescence after intravenous administration to mice; assay type: in vivo; conditions: for Fold increase in total body Luc Flux relative to MC3 at 6 h: Table 3A, i.v. administration; for Total Flux 3 hours / Total Flux 6 hours / Total Flux 24 hours: Luc mRNA
Procedure, shortened: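 Bioluminescence, read as region-of-interest total flux at 3, 6 and 24 h, followed a single 0.5 mg/kg intravenous dose of Luc mRNA-loaded nanoparticles in mice (n=6). Luciferin substrate (200 μL, 15 mg/mL in PBS) was injected intraperitoneally into CD-1 mice 15 minutes ahead of each imaging point.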

[3] = Apparent (surface) pKa of the LNP formulation (TNS assay); assay type: physicochemical; conditions: Table 1A
Procedure, shortened: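 Fluorescence of TNS probe added to LNP samples (mRNA 0.04 mg/mL) was read across 21 buffers of pH about 3-12, triplicate per pH. The inflection point of the sigmoidal fluorescence-vs-pH curve, […], gives apparent pKa; method validated in 1× PBS and Tris/sucrose buffer.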

luciferase (Luc) mRNA [4] = experiment: Luc expression (total flux) after intramuscular administration; assay type: in vivo, mice; conditions: for i.m. Lipid/MC3 0.01 mpk, Luc, 6 h: Table 3B; for Total flux (p/s) 0.01 mpk Dose: Table 5B
Description: In order to monitor how effectively various nanoparticle compositions deliver therapeutic and/or prophylactics to targeted cells, different nanoparticle compositions including a particular therapeutic and/or prophylactic (for example, a modified or naturally occurring RNA such as an mRNA) are prepared and administered to rodent populations. Mice are intravenously, intramuscularly, intraarterially, or intratumorally administered a single dose including a nanoparticle composition with a formulation such as those provided in Example 3. In some instances, mice may be made to inhale doses. Dose sizes may range from 0.001 mg/kg to 10 mg/kg, where 10 mg/kg describes a dose including 10 mg of a therapeutic and/or prophylactic in a nanoparticle composition for each 1 kg of body mass of the mouse. A control composition including PBS may also be employed.
Sample formulations including both modified luciferase (Luc) mRNA and H10 mRNA were prepared and administered intramuscularly and the resulting expression and immunogenicity were evaluated simultaneously. Formulations including compounds according to Formula (I), (IA), (IB), (II), (IIa), (IIb), (IIc), (IId), (IIe), (IIf), (IIg), (III), (VI), (VI-a), (VII), (VIII), (VIIa), (VIIIa), (VIIIb), (VIIb-1), (VIIb-2), (VIIb-3), (VIIc), (VIId), (VIIIc), or (VIIId) were prepared and administered at doses of 0.001 and 0.01 mpk (e.g., doses of 0.0005 mpk of a formulation including Luc mRNA and a formulation including H10 mRNA or doses of 0.005 mpk of a formulation including Luc mRNA and a formulation including H10 mRNA).
Sample formulations including modified luciferase (Luc) mRNA prepared and administered intramuscularly and the resulting expression and immunogenicity were evaluated simultaneously. Formulations including compounds according to Formula (I), (IA), (IB), (II), (IIa), (IIb), (IIc), (IId), (IIe), (IIf), (IIg), (III), (VI), (VI-a), (VII), (VIII), (VIIa), (VIIIa), (VIIIb), (VIIb-1), (VIIb-2), (VIIb-3), (VIIc), (VIId), (VIIIc), or (VIIId) were prepared and administered at dose of and 0.01 mpk.

luciferase (Luc) mRNA [5] = experiment: Luc expression in liver, lung, spleen and femur 6 hours after intravenous administration; assay type: in vivo; conditions: mice, 0.5 mpk; for Total Flux Liver / Total Flux Lung / Total Flux Spleen: intravenous; for Flux in the spleen: i.v., in words
Procedure, shortened: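 LNP-formulated mRNA given IV to mice (n=3) at 0.5 mpk; at 6 h, bioluminescence imaged ex vivo 15 min after IP D-luciferin (15 mg/mL, 200 μL), organs imaged within 25 min. Values are total flux by region of interest.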

[6] = Encapsulation efficiency of RNA (QUANT-IT RIBOGREEN RNA assay); assay type: physicochemical; conditions: Table 1A
Procedure, shortened: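 RiboGreen fluorescence (ex ~480, em ~520 nm) compared between intact samples and Triton X-100-lysed samples after 15 min at 37 °C in TE buffer, pH 7.5. Percent free RNA is the blank-corrected intact/disrupted ratio.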

[7] = 6 hours after intramuscular administration, 0.01 mpk

SMILES	PDI [1]	Size (nm) [1] [nm]	pKa [3]	EE (%) [6] [%]	Fold increase in total body Luc Flux relative to MC3 at 6 h (luciferase (Luc) mRNA [2])	Total Flux 3 hours (luciferase (Luc) mRNA [2]; mice, i.v., 0.5 mg/kg)	Total Flux 6 hours (luciferase (Luc) mRNA [2]; mice, i.v., 0.5 mg/kg)	Total Flux 24 hours (luciferase (Luc) mRNA [2]; mice, i.v., 0.5 mg/kg)	AUC (p/s * h) (luciferase (Luc) mRNA [4]; Table 3H, intramuscular, Luc)	Lipid/MC3 AUC (luciferase (Luc) mRNA [4]; Table 3H, intramuscular, Luc)	Total Flux Liver (luciferase (Luc) mRNA [5])	Total Flux Lung (luciferase (Luc) mRNA [5])	Total Flux Spleen (luciferase (Luc) mRNA [5])	i.m. Lipid/MC3 0.01 mpk, Luc, 6 h (luciferase (Luc) mRNA [4]; 0.01 mpk)	Total flux (p/s) 0.01 mpk Dose (luciferase (Luc) mRNA [4]; [7]) [p/s]	Novel lipid/MC3 expression ratio, 6 hr. time point, i.m. Luc (luciferase (Luc) mRNA [4]; intramuscular, relative to MC3 formulation)	flux at all timepoints measured (luciferase (Luc) mRNA [2]; mice, i.v., 0.5 mg/kg, 3, 6 and 24 hour, in words)	Total flux, 0.001 mpk Dose (luciferase (Luc) mRNA [4]; 6 hours after intramuscular administration, 0.001 mpk, Luc mRNA and H10 mRNA) [p/s]	Total flux, 0.01 mpk Dose (luciferase (Luc) mRNA [4]; 6 hours after intramuscular administration, 0.01 mpk, Luc mRNA and H10 mRNA) [p/s]	Flux in the spleen (luciferase (Luc) mRNA [5])
CCCCCCCCC(CCCCCCCC)OC(=O)CCCCCCCN(CCO)CCCC(=O)OC(CCCCC)CCCCCCCC (stereo not drawn) [Compound 71, Heptadecan-9-yl 8-((2-hydroxyethyl)(4-oxo-4-(tetradecan-6-yloxy)butyl)amino)octanoate]	0.24	71	5.88	97.54	0.418	4.09E+09	9.28E+09	6.51E+07	6.61E+07	0.11	7.93E+08	4.86E+06	8.04E+06	–	–	–	–	–	–	–
CCCCCCCCCOC(=O)CCCCCCCN(CCCCCCCC(=O)OC(CCCCCCCC)CCCCCCCC)CCCn1ccc(=O)[nH]c1=O [Compound 114, Heptadecan-9-yl 8-((3-(2,4-dioxo-3,4-dihydropyrimidin-1(2H)-yl)propyl)(8-(nonyloxy)-8-oxooctyl)amino)octanoate]	0.11	65.1	6.42	98.8	–	8.41E+07	5.98E+07	–	–	–	–	–	–	–	3.31E+06	–	–	–	–	–
CCCCCCCCCOC(=O)CCCCCCCN(C)CCCCCCCC(=O)OC(CCCCCCCC)CCCCCCCC [Compound 123, Heptadecan-9-yl 8-(methyl(8-(nonyloxy)-8-oxooctyl)amino)octanoate]	–	–	6.27	–	–	4.06E+09	1.81E+10	5.18E+08	–	–	2.50E+08	1.78E+06	4.04E+06	–	1.08E+07	–	–	–	–	–
CCCCCCCCCOC(=O)CCCCCCCN(CCCN)CCCCCCCC(=O)OC(CCCCCCCC)CCCCCCCC [Compound 121, Heptadecan-9-yl 8-((3-aminopropyl)(8-(nonyloxy)-8-oxooctyl)amino)octanoate]	–	–	8.50	–	–	1.29E+06	1.36E+06	–	–	–	–	–	–	–	1.06E+06	–	–	–	–	–
CCCCCCCCCOC(=O)CCCCCCCN(CCO)CCCCCCCC(=O)OC(CCCC)CCCC [Compound 57, nonan-5-yl 8-((2-hydroxyethyl)(8-(nonyloxy)-8-oxooctyl)amino) octanoate]	0.16	128.4	–	94.33	0.00056	6.69E+06	6.21E+06	4.16E+05	–	–	9.36E+05	3.18E+04	2.47E+06	–	–	–	significantly lower flux	1.16E+05	2.23E+05	–
CCCCCCCCC(CCCCCCCC)OC(=O)CCCCCCCN(C)CCCCCCCC(=O)OC(CCCCCCCC)CCCCCCCC [Compound 124, Di(heptadecan-9-yl) 8,8′-(methylazanediyl)dioctanoate]	0.1	61.3	5.89	97.7	–	6.62E+07	3.91E+09	5.13E+06	–	–	8.46E+06	5.67E+04	8.06E+04	–	–	–	–	–	–	lowest
CCCCCCCCCOC(=O)CCCCCCCN(CCO)CCCCCCCC(=O)OC(C)CCCCCCCC (stereo not drawn) [Compound 36, decan-2-yl 8-((2-hydroxyethyl)(8-(nonyloxy)-8-oxooctyl)amino) octanoate]	0.17	163.5	7.38	81.45	0.004	6.97E+07	1.72E+08	4.44E+05	–	–	2.65E+07	5.82E+05	6.14E+07	–	–	–	–	–	–	–

Continued, in another order:

PDI [1]	Size (nm) [1] [nm]	pKa [3]	EE (%) [6] [%]	SMILES	Fold increase in total body Luc Flux relative to MC3 at 6 h (luciferase (Luc) mRNA [2])	Total Flux 3 hours (luciferase (Luc) mRNA [2]; mice, i.v., 0.5 mg/kg)	Total Flux 6 hours (luciferase (Luc) mRNA [2]; mice, i.v., 0.5 mg/kg)	Total Flux 24 hours (luciferase (Luc) mRNA [2]; mice, i.v., 0.5 mg/kg)	AUC (p/s * h) (luciferase (Luc) mRNA [4]; Table 3H, intramuscular, Luc)	Lipid/MC3 AUC (luciferase (Luc) mRNA [4]; Table 3H, intramuscular, Luc)	Total Flux Liver (luciferase (Luc) mRNA [5])	Total Flux Lung (luciferase (Luc) mRNA [5])	Total Flux Spleen (luciferase (Luc) mRNA [5])	i.m. Lipid/MC3 0.01 mpk, Luc, 6 h (luciferase (Luc) mRNA [4]; 0.01 mpk)	Total flux (p/s) 0.01 mpk Dose (luciferase (Luc) mRNA [4]; [7]) [p/s]	Novel lipid/MC3 expression ratio, 6 hr. time point, i.m. Luc (luciferase (Luc) mRNA [4]; intramuscular, relative to MC3 formulation)	flux at all timepoints measured (luciferase (Luc) mRNA [2]; mice, i.v., 0.5 mg/kg, 3, 6 and 24 hour, in words)	Total flux, 0.001 mpk Dose (luciferase (Luc) mRNA [4]; 6 hours after intramuscular administration, 0.001 mpk, Luc mRNA and H10 mRNA) [p/s]	Total flux, 0.01 mpk Dose (luciferase (Luc) mRNA [4]; 6 hours after intramuscular administration, 0.01 mpk, Luc mRNA and H10 mRNA) [p/s]	Flux in the spleen (luciferase (Luc) mRNA [5])
0.16	65.7	6.15	94.8	CCCCCCCCCOC(=O)CCCCCCCN(CCCCCCCC(=O)OC(CCCCCCCC)CCCCCCCC)CCCOC(=O)NC [Compound 175, Heptadecan-9-yl 8-((3-((methylcarbamoyl)oxy)propyl)(8-(nonyloxy)-8-oxooctyl)amino)octanoate]	–	–	–	–	–	–	–	–	–	0.1	–	–	–	–	–	–
0.21	81.4	6.59	98.8	CCCCCCCCCOC(=O)CCCCCCCN(CCCCCCCC(=O)OC(CCCCCCCC)CCCCCCCC)CCCn1cc(CO)nn1 [Compound 218, Heptadecan-9-yl 8-((3-(4-(hydroxymethyl)-1H-1,2,3-triazol-1-yl)propyl)(8-(nonyloxy)-8-oxooctyl)amino)octanoate]	–	–	–	–	–	–	–	–	–	–	–	1.77	–	–	–	–
0.21	84.4	6.65	99.0	CCCCCCCCCOC(=O)CCCCCCCN(CCCCCCCC(=O)OC(CCCCCCCC)CCCCCCCC)CCCN1C(=O)CNC1=O [Compound 174, Heptadecan-9-yl 8-((3-(2,5-dioxoimidazolidin-1-yl)propyl)(8-(nonyloxy)-8-oxooctyl)amino)octanoate]	–	–	–	–	–	–	–	–	–	0.2	–	–	–	–	–	–
0.19	86.3	7.3	77.2	CCCCCCCCCCCOC(=O)CCCCCN(CCO)CCCCCCCC(=O)N(CCCCCCCC)CCCCCCCC [Compound 129, Undecyl 6-((8-(dioctylamino)-8-oxooctyl)(2-hydroxyethyl)amino)hexanoate]	0.203	5.97E+09	4.51E+09	2.22E+08	–	–	6.65E+08	9.89E+06	5.09E+08	–	–	–	–	–	–	highest
0.16	75.5	6.31	92.89	CCCCCCCCCOC(=O)CCCCCCCN(CCCCCCCC(=O)OC(CCCCCCCC)CCCCCCCC)CCCN(C)S(C)(=O)=O [Compound 173, Heptadecan-9-yl 8-((3-(N-methylmethylsulfonamido)propyl)(8-(nonyloxy)-8-oxooctyl)amino)octanoate]	–	–	–	–	–	–	–	–	–	0.6	–	–	–	–	–	–
